From patent publication US10638754B2, “Methods of attracting Drosophila suzukii using acetoin blend” (The United States of America, as Represented by the …, priority 2016, dated 2020)

Experiments:
D. suzukii [1] = assay: preliminary field test with baited traps, 2014; type: in vivo, Drosophila suzukii; conditions: for Mean ± SD (SWD captured): Oct. 17 to Oct. 24, 2014, 3 replicates; for Total no. SWD captured: Oct. 17 to Oct. 24, 2014, Beltsville, 3 replicates
Method: (§1) Field test: Commercially-available Victor® yellowjacket and flying insect traps (Great Lakes IPM Inc., Vestaburg, Mich.) filled with ˜300 mL of tap water containing a surfactant (Seventh Generation™ natural dish liquid—free and clear, Shoppers Food and Pharmacy, College Park, Md., 4 mL/gallon) as a drowning solution were used in all field tests at the Beltsville Agricultural Research Center-West, Beltsville, Md. (10300 Baltimore Ave., Beltsville, Md.) and at the blueberry field at Butler's Orchard (22222 Davis Mill Rd, Germantown, Md.). Unless otherwise indicated, pure chemical (individual or blend, 1 mL) was loaded onto a cotton ball held within a polypropylene flex micro-centrifuge tube (1.5 mL Eppendorf micro-centrifuge tube, VWR International, Radnor, Pa.) and the lid of the tube was then closed. Tubes filled only with a cotton ball were used as blank controls. The micro-centrifuge tube lure was opened and the lid was snapped into one of four holes on the cap of the Victor® trap, leaving the three remaining holes to serve as entrances for attracted insects. At the Beltsville Agricultural Research Center, traps were hung from the branches of trees on the edge of a small woodlot in blocks consisting of 3-5 treatments and 1 blank control with the traps spaced approximately 5 m apart within a group. The treatments were randomly arranged at different positions within the block and blocks were separated by 10-20 m. At the blueberry field in Butler's Orchard, traps were hung from the branches of blueberry bushes, deployed in blocks consisting of 3 treatments with the traps spaced approximately 5 m apart in a group. The traps were randomly arranged at different positions within the block and blocks were separated by 10-20 m.
The preliminary field tests were conducted at the Beltsville Agricultural Research Center during Oct. […] In 2015 and 2016, three additional treatments were formulated: treatment 14 ((2-components, including acetoin (AT) and ethyl octanoate (EO) in 1:1 ratio), treatment 16 (single-component, acetoin (AT)), and treatment 17 (single-component, ethyl octanoate (EO)). The rest of the compounds, including ethanol (EtOH) (10 mL) and acetic acid (AA) (1 mL), were added into drowning water and evaluated as individual attractant or synergistic attractive agent whenever needed. In 2016, ACV (300 mL, Essential Everyday®, 5% acidity, Shoppers Food and Pharmacy, College Park, Md.) and a commercially-available Scentry® SWD lure (Great Lakes IPM Inc., Vestaburg, Mich.) were used as standard lures for SWD attraction activity comparison. […] In addition, ethyl acetate (EA) (5 mL) and phenethyl alcohol (PE) (1 mL) were added to the drowning solution and evaluated as individual attractants or synergistic attractive agents. […] Flies were counted in the laboratory.

D. suzukii [2] = assay: laboratory two-choice bioassay (treatment vs. blank control); type: in vivo, Drosophila suzukii; conditions: for attraction against blank control: 20 μL standard dose, FIG. 3D, 3E; for D. suzukii that made choice: 20 μL, FIG. 3E; for attraction compared to a blank control: 50 μL total volume, N=15, FIG. 3C
Method: Laboratory behavioral bioassay: To identify the key components for D. suzukii attraction from the apple juice 7-components blend, a two-choice laboratory bioassay (testing chemical or chemical blend vs. blank control) was used and different combinations of 7-components were evaluated. A complete test apparatus consisted of a plastic cup containing two trap tubes with two lure vials, and a water wick (FIG. 2). The plastic cups were clear, cylindrical polypropylene food containers (946 mL, diameter 114 mm, height 127 mm, Paper Mart, CA). […] The polystyrene trap tubes (95 mm×28.5 mm, same as those used in insect rearing) were labeled “T” for treatment and “B” for blank control, respectively, and were then given the appropriate lure. Lures were either tested chemical/chemical blends (unless otherwise indicated, 20 μL pure individual or blend) loaded onto a small cotton ball held within a small polyethylene lure vial (26 mm×8 mm×1.5 mm thickness, Just Plastic Ltd., Norwich, UK) or blank controls of plain cotton or cotton with solvent (in dose response trials) held in the same type of small lure vial. Each lure vial (open lid) was placed vertically within its trap tube and then the top of each trap tube was sealed with Parafilm® (Pechiney plastics packaging Inc. Menasha, Wis.) leaving only a 4 mm diameter hole in the center to provide an entrance for attracted flies. Each pair of loaded trap tubes were then placed vertically on opposite sides of the test cups with the entrance holes facing upwards. A water wick consisting of a glass scintillation vial (20 mL, VWR, PA) filled with deionized water and plugged with a cotton ball was laid on the bottom of the plastic cup to serve as a water source for the flies during the experiment (FIG. 2). Flies were immobilized using a CO2 stream and 10 were transferred into each testing apparatus. The fully-assembled test apparatus cups were then covered with their ventilated lids. All assays were conducted in a fume hood (120-cm-length×60-cm-width×70-cm-height) using new lures and young flies (2-8 days post-eclosion) under 25° C., 60% RH, and a 16:8 hour (L:D) photoperiod. Mixed-sex D. suzukii were used in bioassays unless stated otherwise, and all flies within and outside treatment and control trap tubes were counted and sexed after 48 hours.
All statistical comparisons were considered for significance at α=0.05.

D. suzukii [3] = assay: field tests in 2015, baited traps; type: in vivo, Drosophila suzukii; conditions: for attraction of D. suzukii in the field: traps, Beltsville, late fall 2015, FIG. 4-6
Method: as §1
The preliminary field tests were conducted at the Beltsville Agricultural Research Center during Oct. 17 to 24, 2014, using six different lures: (1) apple juice blend (treatment 1, 7-components based on apple juice fermentation products (FIG. 1), including isobutanol (IB):2-methyl butanol (2MB):3-methyl butanol (3MB):ethyl hexanoate (EH):acetoin (AT):ethyl octanoate (EO):methyl benzoate (MB) in natural ratios of 4:7:7:0.3:1:0.3:2) (v/v)), (2) raspberry blend (11-components blend, including butyl acetate:hexanal:2-heptanone:3-methyl-butanol:trans-2-hexenal:3-methyl-2-butyl acetate:2-heptanol:hexanol:cis-3-hexenol:6-methyl-5-hepten-2-ol:linalool; obtained from Sigma-Aldrich; mixed into an 11-component blend in natural ratios of 1:36:3:5:10:2:7:8:9:2:8 (v/v), respectively))(Abraham, J. et al., Environ. Entomol., 44 (2): 356-367 (2015)), (3) single component (2-methyl butanol (2MB)), (4) 3-methyl butanol (3MB), (5) binary components blend ((2MB+3MB in 1:1 ratio)), and (6) blank control. In 2015 and 2016, three additional treatments were formulated: treatment 14 ((2-components, including acetoin (AT) and ethyl octanoate (EO) in 1:1 ratio), treatment 16 (single-component, acetoin (AT)), and treatment 17 (single-component, ethyl octanoate (EO)). The rest of the compounds, including ethanol (EtOH) (10 mL) and acetic acid (AA) (1 mL), were added into drowning water and evaluated as individual attractant or synergistic attractive agent whenever needed. In 2016, ACV (300 mL, Essential Everyday®, 5% acidity, Shoppers Food and Pharmacy, College Park, Md.) and a commercially-available Scentry® SWD lure (Great Lakes IPM Inc., Vestaburg, Mich.) were used as standard lures for SWD attraction activity comparison. The amount of AA in the drowning solution in each trap was increased from 1 mL to 15 mL to reach the same acidity (5%) with ACV. In addition, ethyl acetate (EA) (5 mL) and phenethyl alcohol (PE) (1 mL) were added to the drowning solution and evaluated as individual attractants or synergistic attractive agents. Lure dispenser tubes and trap drowning solutions with captured insects were collected and replaced every week unless otherwise indicated. Flies were counted in the laboratory.

[4] = lure release rate from micro-centrifuge tube dispensers; type: physicochemical; conditions: for first order rate constant k of desorption: 1 mL loading, micro-centrifuge tube dispenser, fume hood
Method: Lure Release Rate: Release rates of three different kinds of attractants, including acetoin (AT), ethyl octanoate (EO), and a blend of AT and EO (ratio=1:1), were measured under controlled conditions in a laboratory fume hood. Each attractant (1 mL) was loaded onto cotton balls held in open micro-centrifuge tubes (1.5 mL, VWR International, Radnor, Pa.). Fifteen of these micro-centrifuge tubes (five of each tested attractant) were suspended on hooks in a fume hood (temperature: 20-25° C., face velocity: 129 feet/min). Each tube was weighed every 24-h or 72-h (weekend) and the amount of attractant residue was calculated and recorded over a period of two weeks.

D. suzukii [5] = assay: field tests in 2016, baited traps; type: in vivo, Drosophila suzukii; conditions: Nov.-Dec. 2016, FIG. 7-11
Method: (§2) Field test: Commercially-available Victor® yellowjacket and flying insect traps (Great Lakes IPM Inc., Vestaburg, Mich.) filled with ˜300 mL of tap water containing a surfactant (Seventh Generation™ natural dish liquid—free and clear, Shoppers Food and Pharmacy, College Park, Md., 4 mL/gallon) as a drowning solution were used in all field tests at the Beltsville Agricultural Research Center-West, Beltsville, Md. (10300 Baltimore Ave., Beltsville, Md.) and at the blueberry field at Butler's Orchard (22222 Davis Mill Rd, Germantown, Md.). […]
(§3) The preliminary field tests were conducted at the Beltsville Agricultural Research Center during Oct. […] In 2015 and 2016, three additional treatments were formulated: treatment 14 ((2-components, including acetoin (AT) and ethyl octanoate (EO) in 1:1 ratio), treatment 16 (single-component, acetoin (AT)), and treatment 17 (single-component, ethyl octanoate (EO)). The rest of the compounds, including ethanol (EtOH) (10 mL) and acetic acid (AA) (1 mL), were added into drowning water and evaluated as individual attractant or synergistic attractive agent whenever needed. In 2016, ACV (300 mL, Essential Everyday®, 5% acidity, Shoppers Food and Pharmacy, College Park, Md.) and a commercially-available Scentry® SWD lure (Great Lakes IPM Inc., Vestaburg, Mich.) were used as standard lures for SWD attraction activity comparison. […]

other D. spp. = assay: field tests in 2015, baited traps, non-target catch; type: in vivo; conditions: EtOH combined with the AT+AA blend; field 2015; FIG. 4
Method: as §2, §3

CCC(C)CO (stereo not shown) [2MB, 2-methyl-1-butanol]
Mean ± SD (SWD captured) (D. suzukii [1]): 1.00 ± 1.00c
Total no. SWD captured (D. suzukii [1]): 3
attraction against blank control (D. suzukii [2]; 48 h): repellent effect
D. suzukii that made choice (D. suzukii [2]; 48 h): 37%

CC(C)CCO [3MB, 3-methyl-1-butanol]
Mean ± SD (SWD captured) (D. suzukii [1]): 3.00 ± 1.00c
Total no. SWD captured (D. suzukii [1]): 9

CC(=O)O [AA, acetic acid]
attraction compared to a blank control (D. suzukii [2]): not attractive
attraction of D. suzukii in the field (D. suzukii [3]): inactive by itself

CC(=O)C(C)O (stereo not shown) [AT, 3-hydroxy-2-butanone]
attraction against blank control (D. suzukii [2]; 48 h): elicited attraction
attraction against blank control (D. suzukii [2]; 48 h, listed as Acetoin): moderate activity
attraction of D. suzukii in the field (D. suzukii [3]): significantly more attractive than EO
time to release 50% (half-life of dispenser, t1/2=0.693/k) [4]: ~48 h
first order rate constant k of desorption [4]: 0.316 day⁻¹

CCOC(C)=O [EA, ethyl acetate]
attraction of D. suzukii in the field (D. suzukii [5]): not attractive in the field

CCCCCCCC(=O)OCC [EO, ethyl octanoate]
attraction against blank control (D. suzukii [2]; 48 h): most attractive component
D. suzukii that made choice (D. suzukii [2]; 48 h): 96%
Mean ± SD (D. suzukii captured in tubes) (D. suzukii [2]; 50 μL loading, 5 replicates of 10 flies, 48 h): 9.80 ± 0.45a
Total no. captured (D. suzukii [2]; 50 μL loading, 5 replicates, 50 flies tested in total, 48 h): 49
effectiveness compared with other treatments (D. suzukii [2]; 50 μL loading, N=5): captured significantly more D. suzukii than trap vials baited with treatment 1
attraction against blank control, dose response (D. suzukii [2]; all doses from 0.3 μL to 300 μL, FIG. 3F): Significantly attractive activities
synergistic effect when combined with AA (D. suzukii [3]; field 2015): No synergistic effect
attraction of D. suzukii in the field (D. suzukii [3]): did not show any activity at all
first order rate constant k of desorption [4]: 0.049 day⁻¹

CCO [EtOH, ethanol, reference compound]
attraction compared to a blank control (D. suzukii [2]): significantly more attractive
SWD specificity of the blend (D. suzukii [3]; ethanol added to blend of AT and AA): ~30%
attraction of D. suzukii in the field (D. suzukii [3]): did not show significant activity
trap catch of non-target Drosophila (other D. spp.): attracted significantly more non-target Drosophila

OCCc1ccccc1 [PE, phenethyl alcohol]
attraction of D. suzukii in the field (D. suzukii [5]): did not show any activity
